Assay results from ChEMBL document CHEMBL5108072, “Discovery of Chlorofluoroacetamide-Based Covalent Inhibitors for Severe Acute Respiratory Syndrome Coronavirus 2 3CL Protease” (J Med Chem, 2022).
Activity calls are given as the source filed them. The rule behind the calls is not given here.

Assays:
[1] = biological target: Replicase polyprotein 1ab (Severe acute respiratory syndrome coronavirus 2, UniProt P0DTD1); test: Inhibition of recombinant full length SARS-CoV-2 3CLpro expressed in Escherichia coli using Ac-Abu-Tle-Leu-Gln-MCA as fluorogenic substrate preincubated for 30 mins followed by substrate addition and measured for 6 hrs by multimode plate reader analysis
[2] = test system: Middle East respiratory syndrome-related coronavirus; test: microbe, parasite or virus in culture; details: EMC2012, HEK-293T
SARS-CoV-2 [3] = test: microbe, parasite or virus in culture; details: Severe acute respiratory syndrome coronavirus 2, delta TY11-927, HEK-293T
SARS-CoV = test: microbe, parasite or virus in culture; details: Severe acute respiratory syndrome-related coronavirus, HEK-293T
cells = details: Betacoronavirus 1, HEK-293T
SARS-CoV-2 [4] = test: microbe, parasite or virus in culture; details: Severe acute respiratory syndrome coronavirus 2, HEK-293T
SARS-CoV-2 [5] = test: microbe, parasite or virus in culture; details: Severe acute respiratory syndrome coronavirus 2, Vero C1008
SARS-CoV-2 [6] = test: microbe, parasite or virus in culture; details: Severe acute respiratory syndrome coronavirus 2, alpha QK002, HEK-293T
SARS-CoV-2 [7] = test: microbe, parasite or virus in culture; details: Severe acute respiratory syndrome coronavirus 2, Vero C1008; remark: listed apart in the source
[8] = biological target: Replicase polyprotein 1ab (Severe acute respiratory syndrome coronavirus 2) (UniProt P0DTD1); test: Binding affinity to SARS-CoV-2 3CLpro spiked in human A-431 cells assessed as increase in fluorescence intensity at 0.1 uM incubated for 1 hr by gel electrophoresis based fluorescence analysis; format: cell-based
[9] = Toxicity in fasted ICR/c mouse assessed as debilitation at 100 mg/kg, po; format: organism-based; details: in vivo
[10] = Toxicity in fasted ICR/c mouse assessed as hypotension at 100 mg/kg, po; format: organism-based; details: in vivo
[11] = biological target: Replicase polyprotein 1ab (Severe acute respiratory syndrome coronavirus 2) (UniProt P0DTD1); test: Irreversible inhibition of recombinant full length SARS-CoV-2 3CLpro expressed in Escherichia coli using Ac-Abu-Tle-Leu-Gln-MCA as fluorogenic substrate assessed as inhibition of substrate hydrolysis at upto 500 nM incubated for 60 mins by multimode plate reader analysis; details: TDE = time-dependent effect
[12] = Drug concentration in fasted ICR/c mouse lungs at 100 mg/kg, po measured after 6 hrs by LC-MS/MS analysis; format: ADME, organism-based, Lung; details: in vivo
Procathepsin L = Procathepsin L (Homo sapiens, UniProt P07711); test: Inhibition of C-terminal His-tagged recombinant Human cathepsin L (18 to 333 residues) expressed in FreeStyle 293-F cells using Z-Leu-Arg-MCA peptide as fluorogenic substrate preincubated for 30 mins followed by substrate addition and measured after 1 hr by multimode plate reader analysis; format: cell-based
[13] = GSH reactivity in potassium phosphate buffer at pH 7.4 assessed as half life at 1 mM; format: physicochemical; details: potassium phosphate buffer with GSH
Cathepsin B = Cathepsin B (Homo sapiens, UniProt P07858); test: Inhibition of C-terminal His-tagged Human cathepsin B expressed in FreeStyle 293-F cells using Z-Leu-Arg-MCA peptide as fluorogenic substrate preincubated for 30 mins followed by substrate addition and measured after 1 hr by multimode plate reader analysis; format: cell-based
[14] = Plasma protein binding in mouse assessed as unbound fraction at 1 uM incubated for 16 to 20 hrs by LC-MS/MS analysis; format: ADME, cell-free; details: time 16-20 hrs
[15] = Drug concentration in fasted ICR/c mouse lungs at 10 mg/kg, iv measured after 6 hrs by LC-MS/MS analysis; format: ADME, organism-based, Lung; details: in vivo
Cathepsin S = Cathepsin S (Homo sapiens, UniProt P25774); test: Inhibition of C-terminal His-tagged recombinant Human cathepsin S (17 to 331 residues) expressed in FreeStyle 293-F cells using Z-Leu-Arg-MCA peptide as fluorogenic substrate preincubated for 30 mins followed by substrate addition and measured after 1 hr by multimode plate reader analysis; format: cell-based
[16] = Bioavailability in fasted ICR/c mouse at 100 mg/kg, po or 10 mg/kg, iv by LC-MS/MS analysis; format: ADME, organism-based; details: in vivo

Cathepsin S, sequence (P25774 whole entry, the tested form may be a part): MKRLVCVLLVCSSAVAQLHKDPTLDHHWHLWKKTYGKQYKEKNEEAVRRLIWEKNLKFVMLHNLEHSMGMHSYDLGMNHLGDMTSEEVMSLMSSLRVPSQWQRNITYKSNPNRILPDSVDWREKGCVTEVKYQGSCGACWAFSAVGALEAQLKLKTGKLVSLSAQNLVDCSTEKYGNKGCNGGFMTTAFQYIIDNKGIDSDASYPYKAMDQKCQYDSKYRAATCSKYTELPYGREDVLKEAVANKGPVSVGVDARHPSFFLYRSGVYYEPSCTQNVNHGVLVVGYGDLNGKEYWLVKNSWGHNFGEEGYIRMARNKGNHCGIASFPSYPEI
Procathepsin L, sequence (P07711 whole entry, the tested form may be a part): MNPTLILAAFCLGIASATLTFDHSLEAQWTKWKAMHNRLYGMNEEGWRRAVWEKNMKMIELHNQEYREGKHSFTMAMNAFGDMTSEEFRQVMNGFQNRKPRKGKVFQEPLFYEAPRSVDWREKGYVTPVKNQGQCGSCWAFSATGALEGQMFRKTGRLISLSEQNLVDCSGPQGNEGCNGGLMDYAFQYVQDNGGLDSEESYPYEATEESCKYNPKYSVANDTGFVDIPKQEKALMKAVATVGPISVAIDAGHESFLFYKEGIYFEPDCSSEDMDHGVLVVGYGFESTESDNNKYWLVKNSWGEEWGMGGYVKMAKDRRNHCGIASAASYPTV

Row | SMILES | EC50 [2] | EC50 (SARS-CoV-2 [3]) | EC50 (SARS-CoV) | EC50 (cells) | EC50 (SARS-CoV-2 [4]) | EC50 (SARS-CoV-2 [5]) | EC50 (SARS-CoV-2 [6]) | EC50 (SARS-CoV-2 [7]) | further results
1 | CC(=O)N(C[C@@H]1CCNC1=O)NC(=O)[C@H](CC(C)C)NC(=O)c1cc2c(F)cccc2[nH]1 |  |  |  |  |  |  |  |  | IC50 [1]: 0.332 µM
2 | COc1cccc2[nH]c(C(=O)N[C@@H](CC(C)C)C(=O)N[C@@H](C[C@@H]3CCNC3=O)C(=O)CO)cc12 [PF-00835231] | 0.7 µM | 0.692 µM | 3.24 µM | 0.929 µM | 0.915 µM | > 50 µM | 1.6 µM | 0.509 µM | 
3 | COc1cccc2[nH]c(C(=O)N[C@@H](CC(C)C)C(=O)NN(C[C@H]3CCNC3=O)C(=O)[C@H](F)Cl)cc12 |  | 0.05 µM |  |  | 0.119 µM | > 50 µM | 0.103 µM | 0.389 µM | 
4 | C#CCOc1cccc2[nH]c(C(=O)N[C@@H](CC(C)C)C(=O)NN(C[C@@H]3CCNC3=O)C(=O)[C@H](F)Cl)cc12 |  |  |  |  |  |  |  |  | Activity [8]: Active
5 | O=c1nc(NO)ccn1[C@@H]1O[C@H](CO)[C@@H](O)[C@H]1O [N-HYDROXYCYTIDINE] | 1.32 µM | 0.351 µM | 1.56 µM | 1.19 µM | 0.446 µM | 0.204 µM | 1.22 µM | 0.238 µM | 
6 | COc1cccc2[nH]c(C(=O)N[C@@H](CC(C)C)C(=O)NN(C[C@@H]3CCNC3=O)C(=O)[C@H](F)Cl)cc12 | 0.00501 µM | 0.00879 µM | 0.0644 µM | 0.00318 µM | 0.0244 µM | 20.8 µM | 0.0162 µM | 0.0697 µM | Activity [9]: Toxic; Activity [10]: Toxic; IC50 [1]: 0.0095 µM
7 | CC(C)C[C@H](NC(=O)c1cc2c(F)cccc2[nH]1)C(=O)NN(C[C@@H]1CCNC1=O)C(=O)[C@@H](F)Cl |  | 0.0487 µM |  |  | 0.198 µM |  | 0.069 µM |  | inhibition [11]: Tde
8 | CC(C)C[C@H](NC(=O)c1cc2c(F)cccc2[nH]1)C(=O)NN(C[C@H]1CCNC1=O)C(=O)[C@H](F)Cl |  | 0.0445 µM |  |  | 0.141 µM | > 50 µM | 0.0923 µM | 0.423 µM | 
9 | CC(C)C[C@H](NC(=O)c1cc2c(F)cccc2[nH]1)C(=O)NN(C[C@@H]1CCNC1=O)C(=O)[C@H](F)Cl | 0.00472 µM | 0.737 µM | 0.0593 µM | 0.00167 µM |  |  | 0.0138 µM | 0.059 µM | Ct [12]: 78 nmol/mg; IC50 (Procathepsin L): > 50 µM; half-life at 1000 µM [13]: 48.2 h; inhibition [11]: Tde; IC50 (Cathepsin B): > 50 µM; Fu [14]: 0.15%; Ct [15]: 63 nmol/mg; IC50 (Cathepsin S): > 50 µM; bioavailability [16]: 9%
